Where two headings read alike, the source gives them in different places.
Tested on: HBV
Test: HepAD38 antiviral assay: reduction of viral product accumulation (virion DNA by qPCR, HBsAg or HBeAg by ELISA)
Assay type: cell-based, hepatitis B virus
Settings: read-out: HepAD38 EC50
Procedure, shortened: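 EC50 values represent 50% reduction of viral product accumulation in lysates or supernatants relative to untreated controls, with virion DNA read by qPCR and HBsAg/HBeAg by ELISA. Measurements followed 5 days of treatment, or 8 days with compound renewed on d2 and d5. Cells were tetracycline-depleted HepAD38 at 35,000/well, dosed with a 1:200 dilution of DMSO stocks.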

[1] = Hepatitis B virus, HePAD38, 120 h, HepAD38 cells, five days after compound addition, concentration reducing viral product accumulation by 50% relative to no drug controls
[2] = HepAD38 cells, five days after compound addition, concentration reducing viral product accumulation by 50% relative to no drug controls

| SMILES | EC50 [1] [nM] | other results |
| --- | --- | --- |
| O=C(Nc1cc(F)c(F)c(F)c1)c1ccc(Cl)c(S(=O)(=O)C[C@@H]2CC3CC2[C@H](O)[C@@H]3O)c1 (stereo partly shown) [Example 242] | 100 to 400 | – |
| O=C(Nc1cc(F)c(F)c(F)c1)c1ccc(Cl)c(S(=O)(=O)CC2CC3CCC2C(O)C3O)c1 (stereo not shown) [Example 243] | < 100 | – |
| O=C(Nc1cc(F)c(F)c(F)c1)c1ccc(Cl)c(S(=O)(=O)[C@H]2C3CC[C@H]2C[C@](O)(/C=N/OCc2ccccc2F)C3)c1 [Example 244] | < 100 | – |
| O=C(Nc1cc(F)c(F)c(F)c1)c1ccc(Cl)c(S(=O)(=O)C2CC3CCC(C2)C3=O)c1 (stereo not shown) [Example 245] | – | EC50 [2]: 100 to 400 nM |
| C[C@@]1(O)CC2CC[C@@H](C1)[C@H]2S(=O)(=O)c1cc(C(=O)Nc2cc(F)c(F)c(F)c2)ccc1Cl [Example 247] | < 100 | – |
| C[C@H](N)C(=O)OC[C@]1(O)CC2CC[C@@H](C1)[C@H]2S(=O)(=O)c1cc(C(=O)Nc2cc(F)c(F)c(F)c2)ccc1Cl [Example 248] | < 100 | – |
| O=C(Nc1cc(F)c(F)c(F)c1)c1ccc(Cl)c(S(=O)(=O)[C@H]2CC3CCC(C2)[C@H]3CO)c1 [Example 249] | 100 to 400 | – |
| O=C(Nc1cc(F)c(F)c(F)c1)c1ccc(Cl)c(S(=O)(=O)[C@H]2CC3CCC(C2)[C@@H]3CO)c1 [Example 250] | > 400 | – |
| C[C@]1(O)C2CCC1C[C@H](S(=O)(=O)c1cc(C(=O)Nc3cc(F)c(F)c(F)c3)ccc1Cl)C2 [Example 251] | – | EC50 [2]: > 400 nM |
| CC(C)[C@H](N)C(=O)OC[C@]1(O)CC2CC[C@@H](C1)[C@H]2S(=O)(=O)c1cc(C(=O)Nc2cc(F)c(F)c(F)c2)ccc1Cl [Example 254] | < 100 | – |
| CC(C)(C)OC(=O)N1C2CCC1CC(S(=O)(=O)c1cc(C(=O)Nc3cc(F)c(F)c(F)c3)ccc1Cl)C2 (stereo not shown) [Example 255] | > 400 | – |
| O=C(Nc1cc(F)c(F)c(F)c1)c1ccc(Cl)c(S(=O)(=O)[C@H]2CC3CCC(C2)[C@@]3(O)Cn2cccn2)c1 [Example 261] | > 400 | – |
| NC(=O)OCC1=C[C@@H]2CCC(C1)C2S(=O)(=O)c1cc(C(=O)Nc2cc(F)c(F)c(F)c2)ccc1Cl (stereo partly shown) [Example 262] | < 100 | – |
| O=C(Nc1cc(F)c(F)c(F)c1)c1ccc(Cl)c(S(=O)(=O)[C@H]2C3CC[C@H]2C[C@]2(COS(=O)O2)C3)c1 (stereo partly shown) [Example 263] | < 100 | – |
| O=C(Nc1cc(F)c(F)c(F)c1)c1ccc(Cl)c(S(=O)(=O)[C@H]2CC3CCC(C2)[C@]3(O)CNC(=O)[C@@H]2CCCN2)c1 [Example 264] | < 100 | – |
| CC(C)[C@H](NC(=O)OC(C)(C)C)C(=O)OC[C@]1(O)CC2CC[C@@H](C1)[C@H]2S(=O)(=O)c1cc(C(=O)Nc2cc(F)c(F)c(F)c2)ccc1Cl [Example 265] | 100 to 400 | – |
| O=C(Nc1cc(F)c(F)c(F)c1)c1ccc(Cl)c(S(=O)(=O)C2CC3CCC(C2)N3)c1 (stereo not shown) [Example 266] | – | EC50 (Hepatitis B virus, HePAD38, 120 h): 100 to 400 nM |
| CC[C@]1(O)CC2CC[C@@H](C1)[C@H]2S(=O)(=O)c1cc(C(=O)Nc2cc(F)c(F)c(F)c2)ccc1Cl [Example 268] | 100 to 400 | – |
| O=C(Nc1cc(F)c(F)c(F)c1)c1ccc(Cl)c(S(=O)(=O)[C@H]2C3CC[C@H]2C[C@@]2(CO2)C3)c1 [Example 269] | < 100 | – |
| C=CCOC[C@]1(O)CC2CC[C@@H](C1)[C@H]2S(=O)(=O)c1cc(C(=O)Nc2cc(F)c(F)c(F)c2)ccc1Cl [Example 270] | < 100 | – |

| SMILES | EC50 [1] [nM] | other results |
| --- | --- | --- |
| O=C(Nc1cc(F)c(F)c(F)c1)c1ccc(Cl)c(S(=O)(=O)[C@H]2C3CC[C@H]2C[C@H](Cn2cccn2)C3)c1 [Example 311] | < 100 | – |
| O=C(Nc1cc(F)c(F)c(F)c1)c1ccc(Cl)c(S(=O)(=O)[C@H]2C3CC[C@H]2C[C@](O)(Cn2ccnc2)C3)c1 [Example 314] | < 100 | – |
| COc1ccc(COC[C@]2(O)CC3CC[C@@H](C2)[C@H]3S(=O)(=O)c2cc(C(=O)Nc3cc(F)c(F)c(F)c3)ccc2Cl)cc1 [Example 315] | < 100 | – |
| O=C(Nc1cc(F)c(F)c(F)c1)c1ccc(Cl)c(S(=O)(=O)[C@H]2C3CC[C@H]2C[C@](O)(COCc2ccncc2)C3)c1 [Example 316] | 100 to 400 | – |
| CNC(=O)OC[C@@H]1CC2CC[C@@H](C1)[C@H]2S(=O)(=O)c1cc(C(=O)Nc2cc(F)c(F)c(F)c2)ccc1Cl [Example 318] | < 100 | – |
| O=C(Nc1cc(F)c(F)c(F)c1)c1ccc(Cl)c(S(=O)(=O)[C@H]2C3CC[C@H]2C[C@](O)(COC/C=N/O)C3)c1 [Example 320] | < 100 | – |
| O=C(Nc1cc(F)c(F)c(F)c1)c1ccc(Cl)c(S(=O)(=O)[C@H]2CC3CCC(C2)[C@]3(O)c2ccc(F)cn2)c1 [Example 323] | < 100 | – |
| O=C(Nc1cc(F)c(F)c(F)c1)c1ccc(Cl)c(S(=O)(=O)[C@H]2C3CC[C@H]2C[C@](O)(COCCN2CCOCC2)C3)c1 [Example 325] | < 100 | – |
| O=C(Nc1cc(F)c(F)c(F)c1)c1ccc(Cl)c(S(=O)(=O)[C@H]2C3CC[C@H]2C[C@](O)(COC/C=C/c2ccncc2)C3)c1 [Example 326] | > 400 | – |
| O=C(Nc1cc(F)c(F)c(F)c1)c1ccc(Cl)c(S(=O)(=O)[C@H]2C3CC[C@H]2C[C@](O)(COCC(O)CO)C3)c1 (stereo partly shown) [Example 327] | 100 to 400 | – |
| O=C(Nc1cc(F)c(F)c(F)c1)c1ccc(Cl)c(S(=O)(=O)[C@H]2C3CC[C@H]2C[C@](O)(COCC2CO2)C3)c1 (stereo partly shown) [Example 328] | < 100 | – |
| O=C(Nc1cc(F)c(F)c(-n2cccn2)c1)c1ccc(Cl)c(S(=O)(=O)[C@H]2C3CC[C@H]2C[C@](O)(Cn2cccn2)C3)c1 [Example 333] | > 400 | – |
| COC(=O)NC[C@@H]1CC2CC[C@@H](C1)[C@H]2S(=O)(=O)c1cc(C(=O)Nc2cc(F)c(F)c(F)c2)ccc1Cl [Example 334] | < 100 | – |
| COC(=O)N(C)C[C@@H]1CC2CC[C@@H](C1)[C@H]2S(=O)(=O)c1cc(C(=O)Nc2cc(F)c(F)c(F)c2)ccc1Cl [Example 335] | < 100 | – |
| O=C(Nc1cc(F)c(F)c(F)c1)c1ccc(Cl)c(S(=O)(=O)[C@H]2CC3CCC(C2)[C@]3(O)CN2CCOCC2)c1 [Example 336] | < 100 | – |
| O=C(Nc1cc(F)c(F)c(F)c1)c1ccc(Cl)c(S(=O)(=O)[C@H]2C3CCC2C[C@H](CN2CCOCC2)C3)c1 [Example 337] | 100 to 400 | – |
| O=C(Nc1cc(F)c(F)c(F)c1)c1ccc(Cl)c(S(=O)(=O)[C@H]2C3CC[C@H]2C[C@]2(C3)OC(=O)[C@@H](O)[C@@H]2O)c1 [Example 338] | > 400 | – |
| COC(=O)[C@@H](NC[C@]1(O)C2CCC1C[C@@H](S(=O)(=O)c1cc(C(=O)Nc3cc(F)c(F)c(F)c3)ccc1Cl)C2)C(C)C [Example 339] | > 400 | – |
| CCOC(=O)[C@@H](NC[C@]1(O)C2CCC1C[C@@H](S(=O)(=O)c1cc(C(=O)Nc3cc(F)c(F)c(F)c3)ccc1Cl)C2)C(C)C [Example 340] | > 400 | – |
| CC(CO)NC[C@]1(O)C2CCC1C[C@@H](S(=O)(=O)c1cc(C(=O)Nc3cc(F)c(F)c(F)c3)ccc1Cl)C2 (stereo partly shown) [Example 341] | 100 to 400 | – |

| SMILES | EC50 [1] [nM] | other results |
| --- | --- | --- |
| CC(O)CNC[C@]1(O)C2CCC1C[C@@H](S(=O)(=O)c1cc(C(=O)Nc3cc(F)c(F)c(F)c3)ccc1Cl)C2 (stereo partly shown) [Example 342] | < 100 | – |
| O=C(Nc1cc(F)c(F)c(F)c1)c1ccc(Cl)c(S(=O)(=O)[C@H]2CC3CCC(C2)[C@]3(O)C[N+]2([O-])C[C@@H](O)[C@H](O)C2)c1 [Example 343] | 100 to 400 | – |
| CC(C)[C@H](NC[C@]1(O)C2CCC1C[C@@H](S(=O)(=O)c1cc(C(=O)Nc3cc(F)c(F)c(F)c3)ccc1Cl)C2)C(=O)O [Example 344] | > 400 | – |
| CC(=O)NC[C@]1(O)C2CCC1C[C@@H](S(=O)(=O)c1cc(C(=O)Nc3cc(F)c(F)c(F)c3)ccc1Cl)C2 [Example 345] | < 100 | – |
| CC(=O)N1C[C@]2(OC1(C)C)C1CCC2C[C@@H](S(=O)(=O)c2cc(C(=O)Nc3cc(F)c(F)c(F)c3)ccc2Cl)C1 [Example 346] | < 100 | – |
| NC[C@]1(O)C2CCC1C[C@@H](S(=O)(=O)c1cc(C(=O)Nc3cc(F)c(F)c(F)c3)ccc1Cl)C2 [Example 347] | 100 to 400 | – |
| CC(C)(C)OC(=O)NCC(=O)NC[C@]1(O)C2CCC1C[C@@H](S(=O)(=O)c1cc(C(=O)Nc3cc(F)c(F)c(F)c3)ccc1Cl)C2 [Example 348] | < 100 | – |
| C[C@H](NC(=O)OC(C)(C)C)C(=O)NC[C@]1(O)C2CCC1C[C@@H](S(=O)(=O)c1cc(C(=O)Nc3cc(F)c(F)c(F)c3)ccc1Cl)C2 [Example 349] | < 100 | – |
| NCC(=O)NC[C@]1(O)C2CCC1C[C@@H](S(=O)(=O)c1cc(C(=O)Nc3cc(F)c(F)c(F)c3)ccc1Cl)C2 [Example 350] | 100 to 400 | – |
| C[C@H](N)C(=O)NC[C@]1(O)C2CCC1C[C@@H](S(=O)(=O)c1cc(C(=O)Nc3cc(F)c(F)c(F)c3)ccc1Cl)C2 [Example 351] | 100 to 400 | – |
| O=C(Nc1cc(F)c(F)c(F)c1)c1ccc(Cl)c(S(=O)(=O)[C@H]2CC3CCC(C2)[C@]3(O)C(O)CO)c1 (stereo partly shown) [Example 352] | < 100 | – |
| NC(=O)O[C@]1(c2cccnc2)C2CCC1C[C@H](S(=O)(=O)c1cc(C(=O)Nc3cc(F)c(F)c(F)c3)ccc1Cl)C2 [Example 353] | < 100 | – |
| O=C(Nc1ccc(F)c(F)c1)c1ccc(Cl)c(S(=O)(=O)[C@H]2CC3CCC(C2)[C@H]3O)c1 [Example 354] | 100 to 400 | – |
| O=C(Nc1cc(F)c(F)c(F)c1)c1ccc(Cl)c(S(=O)(=O)C2C[C@@H]3O[C@H](C2)[C@@H](O)[C@H]3O)c1 (stereo partly shown) [Example 355] | > 400 | – |
| O=C(Nc1cc(F)c(F)c(F)c1)c1ccc(Cl)c(S(=O)(=O)C2C[C@H]3CC[C@@H](C2)O3)c1 (stereo partly shown) [Example 356] | 100 to 400 | – |
| O=C(Nc1cc(F)c(F)c(F)c1)c1ccc(Cl)c(S(=O)(=O)[C@H]2C[C@H]3CC[C@@H](C2)O3)c1 [Example 357] | 100 to 400 | – |
| CC(CO)NCCOC[C@]1(O)CC2CC[C@@H](C1)[C@H]2S(=O)(=O)c1cc(C(=O)Nc2cc(F)c(F)c(F)c2)ccc1Cl (stereo partly shown) [Example 358] | 100 to 400 | – |
| O=C(Nc1cc(F)c(F)c(F)c1)c1ccc(Cl)c(S(=O)(=O)[C@H]2CC3CCC(C2)[C@@H]3N2CCOCC2)c1 [Example 359] | < 100 | – |

Source: US10538532B2, “Hepatitis B antiviral agents” (ENANTA PHARMACEUTICALS, INC., priority 2016, dated 2020)
